Our source for the T/C values is PubChem BioAssay AID270 (DTP/NCI, 2004).

Where “and” joins values, the source holds several entries; their conditions need not be identical. Equal entries are not always repeated. Results filed as inconclusive are left out.

This experiment has as its system BDF1 mice, s.c. Lewis lung carcinoma, T/C %. Put plainly: NCI In Vivo Anticancer Drug Screen. Data for tumor model Lewis Lung Carcinoma (subcutaneous) in B6D2F1 (BDF1) mice. An outline of the steps:
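Transplanted tumors grown in mice; compound vs vehicle dosing; endpoint survival or tumor size; ratio T/C.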

The mark [1] stands for this setting: endpoint: mean tumor weight, dose: 25.0 mg/kg/injection, schedule: Q01DX011 (ip), vehicle: saline, higher = larger tumour.
The mark [2] stands for this setting: endpoint: mean tumor weight, dose: 50.0 mg/kg/injection, schedule: Q01DX011 (ip), vehicle: saline, higher = larger tumour.

For the compound `O=NN(CCCl)C(=O)Nc1ccc(Br)cc1`, the T/C is 97 % of control (endpoint: median survival time, dose: 1.25 mg/kg/injection, schedule: Q01DX009 (ip), vehicle: Klucel (hydroxypropylcellulose) (HPC), higher = longer survival); 101 % of control (endpoint: median survival time, dose: 2.5 mg/kg/injection, schedule: Q01DX009 (ip), vehicle: Klucel (hydroxypropylcellulose) (HPC), higher = longer survival); 88 % of control (endpoint: median survival time, dose: 5.0 mg/kg/injection, schedule: Q01DX009 (ip), vehicle: Klucel (hydroxypropylcellulose) (HPC), higher = longer survival); 108 % of control (endpoint: median survival time, dose: 9.4 mg/kg/injection, schedule: Q01DX009 (ip), vehicle: Klucel (hydroxypropylcellulose) (HPC), higher = longer survival); 102 % of control (endpoint: median survival time, dose: 10.0 mg/kg/injection, schedule: Q01DX009 (ip), vehicle: Klucel (hydroxypropylcellulose) (HPC), higher = longer survival).
Regarding `CC(/C=N/N=C(N)N)=N/N=C(N)N`, the T/C reads like this: (endpoint: mean tumor weight, dose: 12.5 mg/kg/injection, schedule: Q01DX011 (ip), vehicle: saline, higher = larger tumour) 96 % of control; under setting [1], 69 % of control; under setting [2], 94 % of control.
`O=c1cc[nH]c(=O)o1`: the T/C runs as follows: (endpoint: median survival time, dose: 1.5 mg/kg/injection, schedule: Q01DX009 (ip), vehicle: water, higher = longer survival) 102 % of control; (endpoint: median survival time, dose: 3.0 mg/kg/injection, schedule: Q01DX009 (ip), vehicle: water, higher = longer survival) 95 % of control; (endpoint: median survival time, dose: 3.12 mg/kg/injection, schedule: Q01DX008 (ip), vehicle: water, higher = longer survival) 93 % of control; (endpoint: median survival time, dose: 3.12 mg/kg/injection, schedule: Q01DX009 (ip), vehicle: water, higher = longer survival) 114 % of control; (endpoint: median survival time, dose: 6.0 mg/kg/injection, schedule: Q01DX009 (ip), vehicle: water, higher = longer survival) 94 % of control; (endpoint: median survival time, dose: 6.25 mg/kg/injection, schedule: Q01DX008 (ip), vehicle: water, higher = longer survival) 118 % of control. For the same compound, the T/C is 108 % of control and 243 % of control (endpoint: median survival time, dose: 6.25 mg/kg/injection, schedule: Q01DX009 (ip), vehicle: water, higher = longer survival); 106 % of control and 108 % of control (endpoint: median survival time, dose: 12.0 mg/kg/injection, schedule: Q01DX009 (ip), vehicle: water, higher = longer survival); 114 % of control (endpoint: median survival time, dose: 12.5 mg/kg/injection, schedule: Q01DX008 (ip), vehicle: water, higher = longer survival); 103 % of control and 243 % of control (endpoint: median survival time, dose: 12.5 mg/kg/injection, schedule: Q01DX009 (ip), vehicle: water, higher = longer survival); 98 % of control and 116 % of control (endpoint: median survival time, dose: 24.0 mg/kg/injection, schedule: Q01DX009 (ip), vehicle: water, higher = longer survival); 112 % of control (endpoint: median survival time, dose: 25.0 mg/kg/injection, schedule: Q01DX008 (ip), vehicle: water, higher = longer survival). Besides, for the setting “endpoint: median survival time, dose: 25.0 mg/kg/injection, schedule: Q01DX009 (ip), vehicle: water, higher = longer survival”, the T/C is 107 % of control.
In the case of `COc1ccc2c(c1)CC[C@@H]1[C@@H]2CC[C@]2(C)/C(=N\O)CC[C@@H]12`, the T/C is, setting by setting: (endpoint: mean tumor weight, dose: 50.0 mg/kg/injection, schedule: Q01DX011 (sc), vehicle: steriod suspending solution, higher = larger tumour) 43 % of control; (endpoint: mean tumor weight, dose: 115.0 mg/kg/injection, schedule: Q01DX011 (sc), vehicle: steriod suspending solution, higher = larger tumour) 53 % of control; (endpoint: mean tumor weight, dose: 170.0 mg/kg/injection, schedule: Q01DX011 (sc), vehicle: steriod suspending solution, higher = larger tumour) 45 % of control; (endpoint: mean tumor weight, dose: 200.0 mg/kg/injection, schedule: Q01DX011 (sc), vehicle: steriod suspending solution, higher = larger tumour) 53 % of control; (endpoint: mean tumor weight, dose: 250.0 mg/kg/injection, schedule: Q01DX011 (sc), vehicle: steriod suspending solution, higher = larger tumour) 36 % of control; (endpoint: mean tumor weight, dose: 375.0 mg/kg/injection, schedule: Q01DX011 (sc), vehicle: steriod suspending solution, higher = larger tumour) 43 % of control. The T/C was 50 % of control (endpoint: mean tumor weight, dose: 400.0 mg/kg/injection, schedule: Q01DX011 (sc), vehicle: steriod suspending solution, higher = larger tumour) and 24 % of control (endpoint: mean tumor weight, dose: 600.0 mg/kg/injection, schedule: Q01DX011 (sc), vehicle: steriod suspending solution, higher = larger tumour).
As to `CC1OC(=O)C(C(C)C)NC(=O)C(C(C)C)OC(=O)C(C(C)C)NC(=O)C(C)OC(=O)C(C(C)C)NC(=O)C(C(C)C)OC(=O)C(C(C)C)NC(=O)C(C)OC(=O)C(C(C)C)NC(=O)C(C(C)C)OC(=O)C(C(C)C)NC1=O` (centres undefined), the T/C is 100 % of control (endpoint: median survival time, dose: 0.31 mg/kg/injection, schedule: Q01DX009 (ip), vehicle: saline with Tween-80, higher = longer survival); 103 % of control (endpoint: median survival time, dose: 0.62 mg/kg/injection, schedule: Q01DX009 (ip), vehicle: saline with Tween-80, higher = longer survival); 94 % of control (endpoint: median survival time, dose: 0.75 mg/kg/injection, schedule: Q01DX009 (ip), vehicle: Klucel (hydroxypropylcellulose) (HPC), higher = longer survival); 109 % of control (endpoint: median survival time, dose: 1.25 mg/kg/injection, schedule: Q01DX009 (ip), vehicle: saline with Tween-80, higher = longer survival); 86 % of control (endpoint: median survival time, dose: 1.5 mg/kg/injection, schedule: Q01DX009 (ip), vehicle: Klucel (hydroxypropylcellulose) (HPC), higher = longer survival); 86 % of control (endpoint: median survival time, dose: 2.5 mg/kg/injection, schedule: Q01DX009 (ip), vehicle: saline with Tween-80, higher = longer survival). In addition, the T/C is 101 % of control (endpoint: median survival time, dose: 3.0 mg/kg/injection, schedule: Q01DX009 (ip), vehicle: Klucel (hydroxypropylcellulose) (HPC), higher = longer survival); 100 % of control (endpoint: median survival time, dose: 6.0 mg/kg/injection, schedule: Q01DX009 (ip), vehicle: Klucel (hydroxypropylcellulose) (HPC), higher = longer survival); 114 % of control (endpoint: median survival time, dose: 8.0 mg/kg/injection, schedule: Q01DX009 (ip), vehicle: saline with Tween-80, higher = longer survival); 112 % of control (endpoint: median survival time, dose: 12.0 mg/kg/injection, schedule: Q01DX009 (ip), vehicle: saline with Tween-80, higher = longer survival); 106 % of control (endpoint: median survival time, dose: 15.0 mg/kg/injection, schedule: Q04DX003 (ip), vehicle: saline with Tween-80, higher = longer survival); 123 % of control (endpoint: median survival time, dose: 20.0 mg/kg/injection, schedule: Q01DX001 (ip), vehicle: saline with Tween-80, higher = longer survival). For the same compound, the T/C runs as follows: (endpoint: median survival time, dose: 20.0 mg/kg/injection, schedule: Q04DX003 (ip), vehicle: saline with Tween-80, higher = longer survival) 112 % of control; (endpoint: median survival time, dose: 30.0 mg/kg/injection, schedule: Q01DX001 (ip), vehicle: saline with Tween-80, higher = longer survival) 112 % of control; (endpoint: median survival time, dose: 30.0 mg/kg/injection, schedule: Q04DX003 (ip), vehicle: saline with Tween-80, higher = longer survival) 115 % of control; (endpoint: median survival time, dose: 45.0 mg/kg/injection, schedule: Q01DX001 (ip), vehicle: saline with Tween-80, higher = longer survival) 119 % of control.
On to `N=[N+]=CC(=O)CCC(NC(=O)C(CCC(=O)C=[N+]=N)NC(=O)CCC(N)C(=O)O)C(=O)O` (centres undefined), for which the T/C runs as follows: (endpoint: mean tumor weight, dose: 0.06 mg/kg/injection, schedule: Q01DX011 (ip), vehicle: water, higher = larger tumour) 103 % of control; (endpoint: mean tumor weight, dose: 0.12 mg/kg/injection, schedule: Q01DX011 (ip), vehicle: water, higher = larger tumour) 34 % of control; (endpoint: mean tumor weight, dose: 0.25 mg/kg/injection, schedule: Q01DX011 (ip), vehicle: water, higher = larger tumour) 17 % of control; (endpoint: median survival time, dose: 0.1 mg/kg/injection, schedule: Q01DX011 (ip), vehicle: other, higher = longer survival) 120 % of control; (endpoint: median survival time, dose: 0.2 mg/kg/injection, schedule: Q01DX011 (ip), vehicle: other, higher = longer survival) 89 % of control; (endpoint: median survival time, dose: 0.4 mg/kg/injection, schedule: Q01DX011 (ip), vehicle: other, higher = longer survival) 116 % of control. For the same compound, the T/C by setting is: (endpoint: median survival time, dose: 0.8 mg/kg/injection, schedule: Q01DX011 (ip), vehicle: other, higher = longer survival) 107 % of control; (endpoint: median survival time, dose: 1.6 mg/kg/injection, schedule: Q01DX011 (ip), vehicle: other, higher = longer survival) 101 % of control.
As for `C1CCNC1`, the T/C by setting is: (endpoint: mean tumor weight, dose: 1.56 mg/kg/injection, schedule: Q01DX011 (ip), vehicle: saline, higher = larger tumour) 65 % of control; (endpoint: mean tumor weight, dose: 3.13 mg/kg/injection, schedule: Q01DX011 (ip), vehicle: saline, higher = larger tumour) 87 % of control; (endpoint: mean tumor weight, dose: 6.25 mg/kg/injection, schedule: Q01DX011 (ip), vehicle: saline, higher = larger tumour) 117 % of control; under setting [1], 73 % of control; under setting [2], 67 % of control.
Take `C[C@]12CCC(=O)C=C1CC[C@@H]1[C@@H]2[C@@H](O)C[C@@]2(C)[C@H]1CC[C@]2(O)C(=O)CF`: the T/C by setting is: (endpoint: mean tumor weight, dose: 3.13 mg/kg/injection, schedule: Q01DX011 (sc), vehicle: steriod suspending solution, higher = larger tumour) 70 % of control; (endpoint: mean tumor weight, dose: 6.25 mg/kg/injection, schedule: Q01DX011 (sc), vehicle: steriod suspending solution, higher = larger tumour) 68 % of control; (endpoint: mean tumor weight, dose: 12.5 mg/kg/injection, schedule: Q01DX011 (sc), vehicle: steriod suspending solution, higher = larger tumour) 65 % of control; (endpoint: mean tumor weight, dose: 25.0 mg/kg/injection, schedule: Q01DX011 (sc), vehicle: steriod suspending solution, higher = larger tumour) 33 % of control.
Take `CC(C)C(=O)[O][Sn]([CH3])([CH3])[CH3]`: the T/C is, setting by setting: (endpoint: median survival time, dose: 0.09 mg/kg/injection, schedule: Q01DX009 (ip), vehicle: saline, higher = longer survival) 97 % of control; (endpoint: median survival time, dose: 0.19 mg/kg/injection, schedule: Q01DX009 (ip), vehicle: saline, higher = longer survival) 101 % of control; (endpoint: median survival time, dose: 0.38 mg/kg/injection, schedule: Q01DX009 (ip), vehicle: saline, higher = longer survival) 89 % of control and 105 % of control.
As to `CC(C)CNc1ccc(S(=O)(=O)c2ccc(NCC(C)C)c([N+](=O)[O-])c2)cc1[N+](=O)[O-]`, the T/C was 110 % of control (endpoint: median survival time, dose: 6.25 mg/kg/injection, schedule: Q01DX009 (ip), vehicle: saline with Tween-80, higher = longer survival); 103 % of control (endpoint: median survival time, dose: 12.5 mg/kg/injection, schedule: Q01DX009 (ip), vehicle: saline with Tween-80, higher = longer survival); 109 % of control (endpoint: median survival time, dose: 25.0 mg/kg/injection, schedule: Q01DX009 (ip), vehicle: saline with Tween-80, higher = longer survival); 86 % of control (endpoint: median survival time, dose: 50.0 mg/kg/injection, schedule: Q01DX009 (ip), vehicle: saline with Tween-80, higher = longer survival).
